Values after ≈ are worked out from the molar mass of the structure shown. Read-outs that look alike come from different tables or passages of the source.
Columns and labels:
[1] = system: Eubacterium aerofaciens 1235; test: Susceptibility of anaerobic bacterial isolates (MIC), agar-dilution; format: cell-based
Bacteriodes fragilis 111 = test: as above; format: cell-based; conditions: Bacteriodes fragilis 111; agar-dilution, 24-hour incubation; read-out: MIC
[2] = system: Bacteriodes fragilis 1936B; test: as above; format: cell-based; conditions: Bacteriodes fragilis 1936B; agar-dilution, 24-hour incubation; read-out: MIC
[3] = system: Propionibacterium acnes 79; test: as above; format: cell-based; conditions: Cutibacterium acnes; Propionibacterium acnes 79; agar-dilution, 24-hour incubation; read-out: MIC
[4] = system: Bacteriodes corrodens 1874; test: as above; format: cell-based; conditions: Bacteriodes corrodens 1874; agar-dilution, 24-hour incubation; read-out: MIC
[5] = system: Streptococcus pneumoniae Park1; format: cell-based; conditions: Streptococcus pneumoniae Park1; agar-dilution; read-out: MIC
Procedure: (§1) The A80915 antibiotics inhibit the growth of bacteria which are pathogenic to animal life. […] The MIC's in Table III were determined by conventional agar-dilution assays.

Mycoplasma gallisepticum = format: cell-based; conditions: Mycoplasmoides gallisepticum; Veterinary organism Mycoplasma gallisepticum; agar-dilution
Procedure: as §1

[6] = system: Staphylococcus epidermis EPI1; format: cell-based; conditions: Staphylococcus epidermis EPI1; agar-dilution; read-out: MIC
Procedure: as §1

[7] = system: Staphylococcus aureus X400; format: cell-based; conditions: Staphylococcus aureus X400; agar-dilution; read-out: MIC
Procedure: as §1

[8] = system: Bordetella bronchiseptica; format: cell-based; conditions: Veterinary organism Bordetella bronchiseptica; agar-dilution
Procedure: as §1

[9] = system: Streptococcus faecium 2041; format: cell-based; conditions: Enterococcus faecium; Streptococcus faecium 2041; agar-dilution; read-out: MIC
Procedure: as §1

Gram-negative = format: cell-based; conditions: agar-dilution
Procedure: as §1

Staphylococcus sp. = format: cell-based; conditions: Veterinary organism Staphylococcus sp.; agar-dilution
Procedure: as §1

[10] = system: Streptococcus faecium X66; format: cell-based; conditions: Enterococcus faecium; Streptococcus faecium X66; agar-dilution; read-out: MIC
Procedure: as §1

Pasteurella multocida = format: cell-based; conditions: Veterinary organism Pasteurella multocida; agar-dilution
Procedure: as §1

[11] = system: Staphylococcus aureus X1.1; format: cell-based; conditions: Staphylococcus aureus X1.1; agar-dilution; read-out: MIC
Procedure: as §1

Escherichia coli = format: cell-based; conditions: Veterinary organism Escherichia coli; agar-dilution
Procedure: as §1

Streptococcus sp. = format: cell-based; conditions: Veterinary organism Streptococcus sp.; agar-dilution
Procedure: as §1

[12] = system: Staphylococcus epidermis 222; format: cell-based; conditions: Staphylococcus epidermis 222; agar-dilution; read-out: MIC
Procedure: as §1

Salmonella typhimurium = format: cell-based; conditions: Salmonella enterica; Veterinary organism Salmonella typhimurium; agar-dilution
Procedure: as §1

Mycoplasma hyopneumoniae = format: cell-based; conditions: Mesomycoplasma hyopneumoniae; Veterinary organism Mycoplasma hyopneumoniae; agar-dilution
Procedure: as §1

[13] = system: Staphylococcus aureus V41; format: cell-based; conditions: Staphylococcus aureus V41; agar-dilution; read-out: MIC
Procedure: as §1

[14] = system: Streptococcus pyogenes C203; format: cell-based; conditions: Streptococcus pyogenes C203; agar-dilution; read-out: MIC
Procedure: as §1

Pasteurella hemolytica = format: cell-based; conditions: Veterinary organism Pasteurella hemolytica; agar-dilution
Procedure: as §1

[15] = system: Peptostreptococcus anaerobius 1428; test: Susceptibility of anaerobic bacterial isolates (MIC), agar-dilution; format: cell-based; conditions: Peptostreptococcus anaerobius 1428; agar-dilution, 24-hour incubation; read-out: MIC
[16] = system: Bacteriodes fragilis 1877; test: as above; format: cell-based; conditions: Bacteriodes fragilis 1877; agar-dilution, 24-hour incubation; read-out: MIC
[17] = system: Bacteriodes thetaiotaomicron 1438; test: as above; format: cell-based; conditions: Bacteriodes thetaiotaomicron 1438; agar-dilution, 24-hour incubation; read-out: MIC
Peptococcus prevoti 1281 = test: as above; format: cell-based
[18] = Acute toxicity in mice, intraperitoneal injection; conditions: mouse, in vivo, ip
Source text: The acute toxicity of the A80915 antibiotics in mice, when administered by intraperitoneal injection and expressed as LD50, is shown in Table V.

[19] = Spontaneous loss of nitrogen on standing in solvent; format: physicochemical; conditions: standing at room temperature in a solvent such as methanol, ethanol or water
Source text: Loss of nitrogen is accelerated by, for example, heating or the addition of salts or mild reducing agents such as sodium hyposulfite, and the like.

[20] = system: Peptococcus asaccharolyticus 1302; test: Susceptibility of anaerobic bacterial isolates (MIC), agar-dilution; format: cell-based
[21] = system: Bacteriodes vulgatis 1211; test: as above; format: cell-based; conditions: Bacteriodes vulgatis 1211; agar-dilution, 24-hour incubation; read-out: MIC
Trichomonas vaginalis = test: Anti-protozoan activity (MIC); format: cell-based
[22] = system: Bacteriodes melaninogenicus 1856/28; test: Susceptibility of anaerobic bacterial isolates (MIC), agar-dilution; format: cell-based; conditions: Bacteriodes melaninogenicus 1856/28; agar-dilution, 24-hour incubation; read-out: MIC
[23] = system: Bacteriodes melaninogenicus 2736; test: as above; format: cell-based; conditions: Bacteriodes melaninogenicus 2736; agar-dilution, 24-hour incubation; read-out: MIC
[24] = system: Fusobacterium symbiosum 1470; test: as above; format: cell-based; conditions: Fusobacterium symbiosum 1470; agar-dilution, 24-hour incubation; read-out: MIC
[25] = system: Clostridium perfringens 81; test: microbe, parasite or virus in culture; format: cell-based; conditions: Clostridium perfringens, 81, 24 h
[26] = system: Peptostreptococcus intermedius 1264; test: Susceptibility of anaerobic bacterial isolates (MIC), agar-dilution; format: cell-based
[27] = system: Fusobacterium necrophorum 6054A; test: as above; format: cell-based; conditions: Fusobacterium necrophorum 6054A; agar-dilution, 24-hour incubation; read-out: MIC
Trichomonas foetus = test: Anti-protozoan activity (MIC); format: cell-based; conditions: Tritrichomonas foetus
Candida albicans = test: Anti-fungal activity (MIC); format: cell-based
[28] = system: Clostridium difficile 2994; test: Susceptibility of anaerobic bacterial isolates (MIC), agar-dilution; format: cell-based
[29] = system: Clostridium septicum 1128; test: as above; format: cell-based; conditions: 24-hour incubation
Procedure: The A80915 antibiotics also are active against anaerobic bacteria. […] End points were read after 24-hour incubation.

With Cc1c([O-])c([N+]#N)c2c(c1O)C(=O)[C@@]1(Cl)C[C@@H](Cl)C(C)(C)O[C@@]1(C[C@H]1C(C)(C)[C@@H](Cl)CC[C@]1(C)O)C2=O [A80915D] the MIC ([1]; Collinsella aerofaciens, Eubacterium aerofaciens 1235, agar-dilution, 24-hour incubation, read-out: MIC) was 16 µg/mL (≈ 27.9 µM), the MIC (Bacteriodes fragilis 111) was 16 µg/mL (≈ 27.9 µM) and the MIC [2] was 8 µg/mL (≈ 13.9 µM). It also gave an MIC [3] of 16 µg/mL (≈ 27.9 µM), an MIC [4] greater than 128 µg/mL and an MIC [5] of 1 µg/mL (≈ 1.74 µM). The MIC (Mycoplasma gallisepticum) was greater than 50 µg/mL, the MIC [6] was 2 µg/mL (≈ 3.48 µM) and the MIC [7] was 2 µg/mL (≈ 3.48 µM). It also gave an MIC [8] greater than 50 µg/mL, an MIC [9] of 32 µg/mL (≈ 55.8 µM) and an MIC (Gram-negative) greater than 128 µg/mL. The MIC (Staphylococcus sp.) was 0.2 µg/mL (≈ 0.348 µM), the MIC [10] was 32 µg/mL (≈ 55.8 µM) and the MIC (Pasteurella multocida) was 3.12 µg/mL (≈ 5.44 µM). The MIC [11] was 1 µg/mL (≈ 1.74 µM), the MIC (Escherichia coli) was greater than 50 µg/mL and the MIC (Streptococcus sp.) was 3.12 µg/mL (≈ 5.44 µM). It also gave an MIC [12] of 1 µg/mL (≈ 1.74 µM), an MIC (Salmonella typhimurium) greater than 50 µg/mL and an MIC (Mycoplasma hyopneumoniae) of 25 µg/mL (≈ 43.6 µM). The MIC [13] was 2 µg/mL (≈ 3.48 µM), the MIC [14] was 2 µg/mL (≈ 3.48 µM) and the MIC (Pasteurella hemolytica) was 12.5 µg/mL (≈ 21.8 µM). It also gave an MIC [15] of 8 µg/mL (≈ 13.9 µM), an MIC [16] of 16 µg/mL (≈ 27.9 µM) and an MIC [17] greater than 128 µg/mL. For the same compound, the MIC (Peptococcus prevoti 1281; Peptococcus prevoti 1281, agar-dilution, 24-hour incubation, read-out: MIC) was 8 µg/mL (≈ 13.9 µM), the LD50 [18] was 11.8 mg/kg and the “loss of nitrogen (stability)” value [19] was “spontaneously lose nitrogen”. The MIC ([20]; Peptoniphilus asaccharolyticus, 1302, 24 h) was 4 µg/mL (≈ 6.97 µM), the MIC [21] was greater than 128 µg/mL and the MIC (Trichomonas vaginalis) was 25 µg/mL (≈ 43.6 µM). For the same compound, the MIC [22] was 32 µg/mL (≈ 55.8 µM), the MIC [23] was greater than 128 µg/mL and the MIC [24] was greater than 128 µg/mL. The MIC [25] was 16 µg/mL (≈ 27.9 µM), the MIC ([26]; Peptostreptococcus intermedius 1264, agar-dilution, 24-hour incubation, read-out: MIC) was 128 µg/mL (≈ 223 µM) and the MIC [27] was 8 µg/mL (≈ 13.9 µM). The MIC (Trichomonas foetus) was 25 µg/mL (≈ 43.6 µM), the MIC (Candida albicans) was 10 µg/mL (≈ 17.4 µM) and the MIC ([28]; Clostridioides difficile, Clostridium difficile 2994, agar-dilution, 24-hour incubation, read-out: MIC) was 16 µg/mL (≈ 27.9 µM). It also gave an MIC [29] of 16 µg/mL (≈ 27.9 µM).

With C=C1CCC(Cl)C(C)(C)C1CC12OC(C)(C)C(Cl)C=C1C(=O)c1c(cc(O)c(C)c1O)C2=O (centres unmarked) [Compound 5] the MIC [5] was 4 µg/mL (≈ 8.11 µM), the MIC [6] was 4 µg/mL (≈ 8.11 µM) and the MIC [7] was 4 µg/mL (≈ 8.11 µM). The MIC [9] was 8 µg/mL (≈ 16.2 µM), the MIC (Gram-negative) was greater than 128 µg/mL and the MIC [10] was 8 µg/mL (≈ 16.2 µM). It also gave an MIC [11] of 4 µg/mL (≈ 8.11 µM), an MIC [12] of 4 µg/mL (≈ 8.11 µM) and an MIC [13] of 4 µg/mL (≈ 8.11 µM). For the same compound, the MIC [14] was 4 µg/mL (≈ 8.11 µM).

With C=C1CCC(Cl)C(C)(C)C1CC12OC(C)(C)C(Cl)CC1(Cl)C(=O)c1c(cc(O)c(C)c1O)C2=O (centres unmarked) [A80915A] the MIC ([1]; Collinsella aerofaciens, 1235, 24 h) was 4 µg/mL (≈ 7.55 µM), the MIC (Bacteriodes fragilis 111) was greater than 128 µg/mL and the MIC [2] was greater than 128 µg/mL. It also gave an MIC [3] of 32 µg/mL (≈ 60.4 µM), an MIC [4] greater than 128 µg/mL and an MIC [5] of 32 µg/mL (≈ 60.4 µM). The MIC (Mycoplasma gallisepticum) was 0.78 µg/mL (≈ 1.47 µM), the MIC [6] was 2 µg/mL (≈ 3.77 µM) and the MIC [7] was 2 µg/mL (≈ 3.77 µM). For the same compound, the MIC [8] was greater than 50 µg/mL, the MIC [9] was 8 µg/mL (≈ 15.1 µM) and the MIC (Gram-negative) was greater than 128 µg/mL. The MIC (Staphylococcus sp.) was 0.1 µg/mL (≈ 0.189 µM), the MIC [10] was 2 µg/mL (≈ 3.77 µM) and the MIC (Pasteurella multocida) was 3.12 µg/mL (≈ 5.89 µM). It also gave an MIC [11] of 2 µg/mL (≈ 3.77 µM), an MIC (Escherichia coli) greater than 50 µg/mL and an MIC (Streptococcus sp.) of 0.2 µg/mL (≈ 0.377 µM). The MIC [12] was 2 µg/mL (≈ 3.77 µM), the MIC (Salmonella typhimurium) was greater than 50 µg/mL and the MIC (Mycoplasma hyopneumoniae) was 3.12 µg/mL (≈ 5.89 µM). For the same compound, the MIC [13] was 2 µg/mL (≈ 3.77 µM), the MIC [14] was 32 µg/mL (≈ 60.4 µM) and the MIC (Pasteurella hemolytica) was greater than 50 µg/mL. For the same compound, the MIC [15] was greater than 128 µg/mL, the MIC [16] was greater than 128 µg/mL and the MIC [17] was greater than 128 µg/mL. The MIC (Peptococcus prevoti 1281; 24 h) was 4 µg/mL (≈ 7.55 µM), the LD50 [18] was 212 mg/kg and the MIC ([20]; Peptoniphilus asaccharolyticus, Peptococcus asaccharolyticus 1302, agar-dilution, 24-hour incubation, read-out: MIC) was 16 µg/mL (≈ 30.2 µM). The MIC [21] was greater than 128 µg/mL, the MIC (Trichomonas vaginalis) was 12.5 µg/mL (≈ 23.6 µM) and the MIC [22] was 2 µg/mL (≈ 3.77 µM). The MIC [23] was greater than 128 µg/mL, the MIC [24] was greater than 128 µg/mL and the MIC [25] was 4 µg/mL (≈ 7.55 µM). It also gave an MIC ([26]; Peptostreptococcus, 1264, 24 h) of 4 µg/mL (≈ 7.55 µM), an MIC [27] greater than 128 µg/mL and an MIC (Trichomonas foetus) of 50 µg/mL (≈ 94.4 µM). For the same compound, the MIC (Candida albicans) was greater than 40 µg/mL, the MIC ([28]; Clostridioides difficile, 2994, 24 h) was 4 µg/mL (≈ 7.55 µM) and the MIC [29] was 4 µg/mL (≈ 7.55 µM).
